Data: US4975445A, “Substituted cyclohexenes as central nervous system agents” (priority 1989, dated 1990)
Read-outs that look alike come from different tables or passages of the source.

Tests used:
[1] = target: sigma opiate binding site; test: Inhibition of [3H]DTG (ditoluoylguanidine) binding (Weber et al.)
Procedure: (§1) The compounds of Formula I are valuable dopaminergic agents. […] Thus, the compounds of Formula I were tested for their ability to inhibit locomotor activity in mice according to the assay described by J. R. McLean, et al, Pharmacoloqy, Biochemistry and Behavior, Volume 8, pages 97-99 (1978); for their ability to inhibit [^3 H]-spiroperidol binding in a receptor assay described by D. Grigoriadis and P. Seeman, Journal of Neurochemistry, Volume 44, Pages 1925-1935 (1985); and for their ability to inhibit dopamine synthesis in rats according to the protocol described by J. R. Walters and R. H. Roth, Naunyn-Schmiedeberg's Archives of Pharmacology, Volume 296, pages 5-14 (1976). The above test methods are incorporated herein by reference. The data in the table show the dopaminergic activity of representative compounds of Formula I. Additionally, compounds of Formula I are ligands for the sigma opiate binding site. The data in the table show the inhibition of [^3 H]DTG ([…], a sigma ligand) binding by representative compounds of Formula I, according to the method of E. Weber, et al. Proceedings of the National Academy of Sciences, USA, Volume 83, Pages 8784-8788 (1986).

mice = test: Inhibition of locomotor activity in mice (McLean et al.); assay type: in vivo; conditions: Mus musculus, read-out: Inhibition of Locomotor Activity in Mice ED50
Procedure: as §1

[2] = target: [^3 H]-Spiroperidol binding (receptor); test: Inhibition of [3H]-spiroperidol binding (receptor assay, Grigoriadis and Seeman)
Procedure: as §1

[3] = tested on: Brain Striatal Dopamine Synthesis; test: Inhibition of brain striatal dopamine synthesis in rats (Walters and Roth); assay type: in vivo; conditions: Rattus norvegicus, IP, read-out: Effects on Brain Striatal Dopamine Synthesis in Rats, inhibition
Procedure: as §1

| Structure (SMILES) | IC50 [1] [nM] | ED50 (mice; mice, IP) [mg/kg] | IC50 [2] [nM] | inhibition at 10 mg/kg [3] [%] | ED50 (mice; ip) [mg/kg] |
| --- | --- | --- | --- | --- | --- |
| C1=C(c2ccccn2)CCC(CCN2CCN(c3ccccn3)CC2)C1 (racemic) [Example 1b, (±)-1-(2-Pyridinyl)-4-[2-[4-(2-pyridinyl)-3-cyclohexen-1-yl]ethyl]piperazine] | 39 | 0.4 | 128 |  |  |
| C1=C(c2ccccn2)CCC(N2CCN(c3ccccn3)CC2)C1 (racemic) [Example 1a, (±)-1-(2-Pyridinyl)-4-[4-(2-pyridinyl)-3-cyclohexen-1-yl]-piperazine] |  | 0.9 | 1180 | 75 |  |
| C1=C(c2cccs2)CCC(CCN2CCN(c3ccccn3)CC2)C1 (racemic) [Example 2c, (±)-1-(2-Pyridinyl)-4-[2-[4-(2-thienyl)-3-cyclohexen-1-yl]ethyl]-piperazine] | 39 | 8.4 |  | 46 |  |
| C1=C(c2cccnc2)CCC(N2CCN(c3ccccn3)CC2)C1 (racemic) [Example 1, (±)-1-(2-Pyridinyl)-4-[4-(3-pyridinyl)-3-cyclohexen-1-yl]piperazine] |  | 0.1 | 188 | 100 |  |
| Fc1ccc(C2=CCC(CCN3CCN(c4ccccn4)CC3)CC2)cc1 (racemic) [Example 2e, (±)-1-[2-[4-(4-Fluorophenyl)-3-cyclohexen-1-yl]ethyl]-4-(2-pyridinyl)piperazine] | 20 | 2.9 | 365 | 23 |  |
| C1=C(c2cccs2)CCC(CN2CCN(c3ccccn3)CC2)C1 (racemic) [Example 2b, (±)-1-(2-Pyridinyl)-4-[[4-(2-thienyl)-3-cyclohexen-1-yl]methyl]-piperazine] |  | < 30 | 2430 |  |  |
| C1=C(c2ccccc2)CCC(N2CCN(c3ccccn3)CC2)C1 (racemic) [Example 2a, (±)-1-(4-Phenyl-3-cyclohexen-1-yl)-4-(2-pyridinyl)piperazine] |  | 1 | 599 |  |  |
| C1=C(c2ccccc2)CCC(CCN2CCN(c3ccccn3)CC2)C1 (racemic) [Example 2d, (±)-1-[2-(4-Phenyl-3-cyclohexen-1-yl)ethyl]-4-(2-pyridinyl)piperazine] | 23 | 1.9 | 409 | 48 |  |
| C1=C(c2nccs2)CCC(CCN2CCN(c3ccccn3)CC2)C1 (racemic) [Example 2f, (±)-1-(2-Pyridinyl)-4-[2-[4-(2-thiazolyl)-3-cyclohexen1-yl]-ethyl]piperazine] | 98 | 0.8 | 267 | 77 |  |
| C1=C(c2cccs2)CCC(N2CCN(c3ccccn3)CC2)C1 (racemic) [Example 2, (±)-1-(2-Pyridinyl)-4-[4-(2-thienyl)-3-cyclohexen-1-yl]-piperazine] |  | 9.3 | 352 |  |  |
| C1=C(c2ccccc2)CCN(CCC2CC=C(c3cccs3)CC2)C1 (racemic) [Example 2g, (±)-1,2,3,6-Tetrahydro-4-phenyl-1-[2-[4-(2-thienyl)-3-cyclohexen-1-yl]ethyl]pyridine] | 2 |  | 32 |  | 3 |
| C1=C(c2ccccc2)CCN(C2CC=C(c3ccccn3)CC2)C1 (racemic) [Example 3, (±)-2-[4-(3,6-Dihydro-4-phenyl-1(2H)-pyridinyl)-1-cyclohexen-1-yl]pyridine] |  |  | 296 |  | 2 |
